According to PubChem BioAssay (NCI):
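Grown in 96-well plates, cells were treated for 48 hours with each compound at five concentrations. Insufficient inhibition: endpoint recorded as highest concentration tested. At the GI50, growth is halved. Definition used: TGI = concentration required for complete inhibition of growth.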

Experiments:
Assay in all cases: growth of human tumour cells (NCI), 48 h
CAKI-1 renal = system: CAKI-1 renal
HCC-2998 colon = system: HCC-2998 colon
ACHN renal = system: ACHN renal
NCI/ADR-RES ovarian = system: NCI/ADR-RES ovarian
SF-295 CNS = system: SF-295 CNS
SK-MEL-2 melanoma = system: SK-MEL-2 melanoma
K-562 leukemia = system: K-562 leukemia
SN12C renal = system: SN12C renal
RPMI-8226 leukemia = system: RPMI-8226 leukemia
PC-3 prostate = system: PC-3 prostate

| Compound | TGI (CAKI-1 renal) [µM] | TGI (HCC-2998 colon) [µM] | TGI (ACHN renal) [µM] | TGI (NCI/ADR-RES ovarian) [µM] | TGI (SF-295 CNS) [µM] | TGI (SK-MEL-2 melanoma) [µM] | TGI (K-562 leukemia) [µM] | TGI (SN12C renal) [µM] | TGI (RPMI-8226 leukemia) [µM] | GI50 (CAKI-1 renal) [µM] | GI50 (NCI/ADR-RES ovarian) [µM] | GI50 (SF-295 CNS) [µM] | GI50 (SK-MEL-2 melanoma) [µM] | GI50 (RPMI-8226 leukemia) [µM] | GI50 (PC-3 prostate) [µM] | TGI (PC-3 prostate) [µM] | GI50 (K-562 leukemia) [µM] | GI50 (SN12C renal) [µM] | GI50 (ACHN renal) [µM] | GI50 (HCC-2998 colon) [µM] |
| --- | --- | --- | --- | --- | --- | --- | --- | --- | --- | --- | --- | --- | --- | --- | --- | --- | --- | --- | --- | --- |
| C#CC1(OC(C)=O)CCC2C3CC=C4C=C(OC(C)=O)CCC4(C)C3CCC21C (centres undefined) | 83.2 | 32.9 | 70.7 | 79.3 | 62 | 41.1 | 83.2 | 45.1 | – | – | – | – | – | – | – | – | – | – | – | – |
| CC1=C(C(=O)Nc2cc(=O)n(C)c(=O)n2C)C(c2cccc([N+](=O)[O-])c2)C(C(=O)Nc2cc(=O)n(C)c(=O)n2C)=C(C)N1 | > 100 | > 100 | > 100 | – | > 100 | > 100 | > 100 | > 100 | > 100 | – | – | – | – | – | – | – | – | – | – | – |
| CCOC(=O)N1c2c(ccn2C)-c2ccn(C)c2N1C(=O)OCC | 44.8 | 37.9 | 29.6 | – | 29.7 | 38.8 | 42.4 | 29.6 | 54.3 | – | – | – | – | – | – | – | – | – | – | – |
| Cc1ccc(NC2=C(Cl)C(=O)N(Cc3ccc(Cl)cc3)C2=O)cc1O | 18 | – | – | 37.8 | 19.8 | 26.7 | > 100 | 30.5 | 14.8 | 2.79 | 9.24 | 4.04 | 10.7 | 2.04 | 5.5 | 35.6 | 61.8 | 13.3 | – | – |
| CC1=C(C(=O)Nc2ccc(Cl)c(Cl)c2)C(c2cccc(Cl)c2)NC(=O)N1 (centres undefined) | 19.9 | – | 20.8 | 33.5 | 5.12 | 19.3 | 48.4 | 16.8 | > 30.1 | 9.42 | 13.3 | 1.04 | 9.95 | > 17 | > 50 | > 50 | 13.6 | 8.53 | 9.07 | – |
| O=C(O)NC(c1ccccc1)C(NC(=O)c1ccccc1)c1ccccc1 (centres undefined) | > 100 | – | > 100 | – | > 100 | > 100 | > 100 | > 100 | > 100 | – | – | – | – | – | – | – | – | – | – | – |
| COc1cc(OC)c(SSCCCCS(=O)O)c(OC)c1 | – | 42.4 | 31.8 | – | 26.8 | 54.6 | 89.3 | 33.6 | – | – | – | – | – | – | – | – | – | – | – | – |
| C/C=C1\C=C(OC)CN(CCc2c[nH]c3ccccc23)C1 | – | 33.1 | > 100 | – | > 100 | > 100 | > 100 | > 100 | > 100 | – | – | – | – | – | – | – | – | – | – | – |
| C=CC1CCC[N+]1(CC(=O)OCC)Cc1ccccc1 (centres undefined) | – | > 100 | > 100 | > 100 | > 100 | – | > 100 | > 100 | > 100 | – | – | – | – | – | – | > 100 | – | – | – | – |
| CC(=O)OC1CCn2nnc(CO)c21 (centres undefined) | > 100 | > 100 | – | – | > 100 | > 100 | > 100 | > 100 | > 100 | – | – | – | – | – | – | – | – | – | – | – |
| CC(=O)OC[C@]1(C)CCCC2(C)C1CCC1C=C(C)[C@H]3CCC12C3 (some centres undefined) | > 100 | > 100 | > 100 | – | > 100 | – | > 100 | > 100 | > 100 | – | – | – | – | – | – | – | – | – | – | – |
| O=C1Cc2c([nH]c3ccccc23)-c2ccccc2N1 | > 100 | 41.2 | > 100 | – | > 100 | > 100 | > 100 | > 100 | > 100 | – | – | – | – | – | – | – | – | – | – | – |
| CCN(CC)CCCNC(=O)C1COc2cc(-c3cc(=O)c4ccccc4o3)ccc2O1 (centres undefined) | > 100 | > 100 | > 100 | – | > 100 | – | > 100 | > 100 | > 100 | – | – | – | – | – | – | – | – | – | – | – |
| Cc1nc(C(N)=S)sc1C(=O)CC(=O)C(=O)Nc1ccccc1[N+](=O)[O-] | > 100 | > 100 | > 100 | – | > 100 | > 100 | > 100 | – | > 100 | – | – | – | – | – | – | – | – | – | – | – |
| CCOC(=O)/C(=C\c1ccc(N(CCC#N)CCC#N)cc1)NC(=O)c1cc([N+](=O)[O-])ccc1Cl | > 100 | > 100 | > 100 | – | > 100 | > 100 | > 100 | > 100 | > 100 | – | – | – | – | – | – | – | – | – | – | – |
| O=S(=O)(NCCCNc1nccc(-c2c(-c3ccc(F)c(O)c3)nc3sccn23)n1)c1ccc(F)cc1 | > 100 | 7.17 | 8.86 | 28 | 5.27 | 3.01 | > 100 | – | – | 3.57 | 3.44 | 2.19 | 0.717 | – | – | – | 1.98 | – | 2.24 | 2.86 |
| CN1CC(=O)N(C)c2ncn(Cc3ccccc3)c2C1=O | – | > 100 | > 100 | – | > 100 | – | > 100 | > 100 | > 100 | – | – | – | – | – | – | – | – | – | – | – |
| c1ccc2c(NCCCCCCNc3c4ccccc4nc4ccccc34)c3ccccc3nc2c1 | 7.87 | 1.76 | 1.72 | 64.2 | 2.18 | 2.75 | > 100 | 4.25 | 0.25 | – | – | – | – | – | – | – | – | – | – | – |
| C=C(C)[C@@H]1CC[C@]2(C(=O)O)CC[C@]3(C)[C@H](CC[C@@H]4[C@@]5(C)CCC(NC(=O)c6cccc(OC(C)=O)c6OC(C)=O)C(C)(C)[C@@H]5CC[C@]43C)[C@@H]12 (some centres undefined) | 2.24 | 4.51 | 2.61 | 6.43 | 3.89 | 4.02 | > 45.7 | > 100 | 4.44 | 0.371 | 0.817 | 0.562 | 0.981 | 0.697 | – | – | 0.332 | 0.94 | 0.323 | 1.57 |
| COc1ccccc1C(O)(c1ccccc1)C(O)(c1ccccc1)c1ccccc1OC (centres undefined) | – | > 100 | > 100 | – | > 100 | > 100 | > 100 | > 100 | > 100 | – | – | – | – | – | – | – | – | – | – | – |
